Reference: article PMC4362054, “C-5’-Triazolyl-2’-oxa-3’-aza-4’a-carbanucleosides: Synthesis and biological evaluation” (Beilstein Journal of Organic Chemistry, 2015)

Columns and labels:
[1] = test system: HFF cells; experiment: Inhibition of cell proliferation (MTT method), HFF cells; type: cell-based, human; conditions: concentration which inhibited cell growth by 50% vs control cultures, mean of three assays
[2] = Inhibition of cell proliferation (MTT method), MDCK cells; type: cell-based; conditions: dog, MDCK cells (Madin-Darby canine kidney), concentration which inhibited cell growth by 50% vs control cultures, mean of three assays
[3] = test system: HEp-2 cells; experiment: Inhibition of cell proliferation (MTT method), HEp-2 cells; type: cell-based, human; conditions: concentration which inhibited cell growth by 50% vs control cultures, mean of three assays, read-out: CC50 HEp2
[4] = Inhibition of cell proliferation (MTT method), Vero cells; type: cell-based; conditions: African green monkey, Vero cells (African green monkey kidney), concentration which inhibited cell growth by 50% vs control cultures, mean of three assays
[5] = Inhibition of cell proliferation (MTT method), BS-C-1 cells; type: cell-based; conditions: African green monkey, BS-C-1 cells (African green monkey kidney), concentration which inhibited cell growth by 50% vs control cultures, mean of three assays
[6] = Inhibition of cell proliferation (MTT method), HEp-2 cells; type: cell-based, human; conditions: human, HEp-2 cells (human epidermoid carcinoma larynx), concentration which inhibited cell growth by 50% vs control cultures, mean of three assays, read-out: CC50 HEp2
[7] = Inhibition of cell proliferation (MTT method), HFF cells; type: cell-based, human; conditions: human, HFF cells (human foreskin fibroblasts), concentration which inhibited cell growth by 50% vs control cultures, mean of three assays
[8] = statement in words; reference not given; cited from earlier work
[9] = statement in words; reference not given; cited from earlier work; remark: listed apart in the source

Row | SMILES | melting point | CC50 [1] | CC50 [2] | CC50 [3] | CC50 [4] | CC50 [5] | CC50 [6] | CC50 [7] | cytotoxicity [8] | antiviral activity [9]
1 | Cc1cn([C@@H]2C[C@H](Cn3cc(-c4ccccc4)nn3)N(C)O2)c(=O)[nH]c1=O [13d] | 268 to 272 °C | 5 µM | 20 µM |  | 20 µM | 20 µM | 20 µM |  |  | 
2 | Cc1cn([C@@H]2C[C@H](Cn3cc(CCO)nn3)N(C)O2)c(=O)[nH]c1=O [13a] | 215 to 218 °C |  | 10 µM | 40 µM | 10 µM | 10 µM |  | 10 µM |  | 
3 | CCCc1cn(C[C@H]2C[C@@H](n3cc(C)c(=O)[nH]c3=O)ON2C)nn1 [13c] | 132 to 137 °C | 5 µM | 20 µM | 40 µM | 20 µM | 20 µM |  |  |  | 
4 | CCCCCc1ccc(-c2cn(C[C@H]3C[C@@H](n4cc(C)c(=O)[nH]c4=O)ON3C)nn2)cc1 [13g] | 259 to 260 °C | 5 µM | 10 µM |  | 10 µM | 10 µM | 20 µM |  |  | 
5 | Cc1cn([C@@H]2C[C@H](CO)N(C)O2)c(=O)[nH]c1=O [compound 8, (3′RS,5′SR)-2′-N-methyl-3′-hydroxymethyl-1′,2′-isoxazolidin-5′-ylthymine] |  |  |  |  |  |  |  |  | do not show any cytotoxicity | endowed with antiviral activity
6 | Cc1cn([C@@H]2C[C@H](Cn3cc(CO)nn3)N(C)O2)c(=O)[nH]c1=O [13b] | 205 to 210 °C |  | 30 µM | 40 µM | 40 µM | 30 µM |  | 30 µM |  | 
7 | COc1ccc(-c2cn(C[C@H]3C[C@@H](n4cc(C)c(=O)[nH]c4=O)ON3C)nn2)cc1 [13e] | 215 to 218 °C | 5 µM | 20 µM | 40 µM | 20 µM | 20 µM |  |  |  | 
8 | Cc1cn([C@@H]2C[C@H](Cn3cc(-c4ccc(F)cc4)nn3)N(C)O2)c(=O)[nH]c1=O [13f] | 269 to 271 °C |  | 10 µM | 40 µM | 10 µM | 10 µM |  | 40 µM |  | 

More lines, main results first:

Row | melting point | SMILES | CC50 [1] | CC50 [2] | CC50 [3] | CC50 [4] | CC50 [5] | CC50 [6] | CC50 [7] | cytotoxicity [8] | antiviral activity [9]
9 | 202 to 205 °C | COc1ccc(-c2cn(C[C@H]3C[C@H](n4cc(C)c(=O)[nH]c4=O)ON3C)nn2)cc1 [14e] | 5 µM | 20 µM | 40 µM | 20 µM | 20 µM |  |  |  | 
10 | 233 to 235 °C | Cc1cn([C@H]2C[C@H](Cn3cc(-c4ccccc4)nn3)N(C)O2)c(=O)[nH]c1=O [14d] | 5 µM | 5 µM |  | 5 µM | 5 µM | 5 µM |  |  | 
11 | 230 to 233 °C | Cc1cn([C@H]2C[C@H](Cn3cc(-c4ccc(F)cc4)nn3)N(C)O2)c(=O)[nH]c1=O [14f] | 5 µM | 20 µM | 40 µM | 20 µM | 20 µM |  |  |  | 
12 | 202 to 206 °C | Cc1cn([C@H]2C[C@H](Cn3cc(CCO)nn3)N(C)O2)c(=O)[nH]c1=O [14a] |  | 20 µM | 40 µM | 20 µM | 20 µM |  | 20 µM |  | 
13 | 245 to 248 °C | CCCCCc1ccc(-c2cn(C[C@H]3C[C@H](n4cc(C)c(=O)[nH]c4=O)ON3C)nn2)cc1 [14g] | 5 µM | 10 µM |  | 10 µM | 10 µM | 20 µM |  |  | 
14 | 168 to 170 °C | CCCc1cn(C[C@H]2C[C@H](n3cc(C)c(=O)[nH]c3=O)ON2C)nn1 [14c] | 5 µM | 20 µM | 40 µM | 20 µM | 20 µM |  |  |  | 
15 | 198 to 201 °C | Cc1cn([C@H]2C[C@H](Cn3cc(CO)nn3)N(C)O2)c(=O)[nH]c1=O [14b] |  | 20 µM | 40 µM | 20 µM | 10 µM |  | 20 µM |  | 
